From US20080213810A1, “Screening Method for Hiv Rt Inhibitors” (priority 2005, published 2008)

Target: HIV RT (Human immunodeficiency virus type 1 group M subtype B, UniProt P04585)
Assay: Enzyme kinetics studies (1/v versus 1/[dTTP])
Format: biochemical
Settings: 40-3 μM dTTP, 2-0 μM compound 1, poly(rA)oligo(dT); lines cross at the Y-axis intercept
Protocol: The enzyme kinetics studies were carried out using a protocol involving a 4×5 matrix of varying substrate and inhibitor concentrations over ranges of 40-3 μM of dTTP and 2-0 μM of compound 1.
The reaction mixtures (50 μl) further contained 50 mM Tris.HCl (pH 7.8), 5 mM dithiothreitol, […], 500 μM EDTA, 150 mM KCl, 5 mM MgCl2, 0.15 mM of the template/primer poly(rA)oligo(dT) and 0.06% Triton X-100. The reaction mixtures were incubated at 37° C. for 15 min, at which time 100 μl of calf thymus DNA ([…]), 2 ml of Na4P207 (0.1 M in 1 M HCl), and 2 ml of trichloroacetic acid (10% v/v) were added. The solutions were kept on ice for 30 min, after which the acid-insoluble material was washed and analyzed for radioactivity. When the reciprocal of the reaction velocity (1/v) is plotted against the reciprocal of the substrate concentration (1/[dTTP]) in the presence of different concentrations of compound 1, the graph (See FIG. 1) is obtained.
Since all the lines cross at the intercept with the Y-axis it is clear that this compound has a competitive mode of HIV RT inhibition.

SMILES: Cn1c2ccccc2c2c1cc(C#N)c(=O)n2-c1ccc([N+](=O)[O-])cc1 [Compound 1]
- mode of HIV RT inhibition: competitive
